The source of these data is ChEMBL document CHEMBL3233010, “Design, synthesis and biological evaluation of novel 6-alkenylamides substituted of 4-anilinothieno[2,3-d]pyrimidines as irreversible epidermal growth factor receptor inhibitors” (Bioorg Med Chem, 2014).

Assay [1] deals with T1, Epidermal growth factor receptor (Homo sapiens, UniProt P00533). As to the kind of experiment: Inhibition of EGFR in human A431 cells assessed as inhibition of EGF-induced ERK1/2 phosphorylation at 0.1 to 1 umol/L pretreated for 2 hrs followed by EGF challenge by Western blotting analysis. Type of assay: cell-based. Conditions: A-431.
T1 sequence (P00533 whole entry): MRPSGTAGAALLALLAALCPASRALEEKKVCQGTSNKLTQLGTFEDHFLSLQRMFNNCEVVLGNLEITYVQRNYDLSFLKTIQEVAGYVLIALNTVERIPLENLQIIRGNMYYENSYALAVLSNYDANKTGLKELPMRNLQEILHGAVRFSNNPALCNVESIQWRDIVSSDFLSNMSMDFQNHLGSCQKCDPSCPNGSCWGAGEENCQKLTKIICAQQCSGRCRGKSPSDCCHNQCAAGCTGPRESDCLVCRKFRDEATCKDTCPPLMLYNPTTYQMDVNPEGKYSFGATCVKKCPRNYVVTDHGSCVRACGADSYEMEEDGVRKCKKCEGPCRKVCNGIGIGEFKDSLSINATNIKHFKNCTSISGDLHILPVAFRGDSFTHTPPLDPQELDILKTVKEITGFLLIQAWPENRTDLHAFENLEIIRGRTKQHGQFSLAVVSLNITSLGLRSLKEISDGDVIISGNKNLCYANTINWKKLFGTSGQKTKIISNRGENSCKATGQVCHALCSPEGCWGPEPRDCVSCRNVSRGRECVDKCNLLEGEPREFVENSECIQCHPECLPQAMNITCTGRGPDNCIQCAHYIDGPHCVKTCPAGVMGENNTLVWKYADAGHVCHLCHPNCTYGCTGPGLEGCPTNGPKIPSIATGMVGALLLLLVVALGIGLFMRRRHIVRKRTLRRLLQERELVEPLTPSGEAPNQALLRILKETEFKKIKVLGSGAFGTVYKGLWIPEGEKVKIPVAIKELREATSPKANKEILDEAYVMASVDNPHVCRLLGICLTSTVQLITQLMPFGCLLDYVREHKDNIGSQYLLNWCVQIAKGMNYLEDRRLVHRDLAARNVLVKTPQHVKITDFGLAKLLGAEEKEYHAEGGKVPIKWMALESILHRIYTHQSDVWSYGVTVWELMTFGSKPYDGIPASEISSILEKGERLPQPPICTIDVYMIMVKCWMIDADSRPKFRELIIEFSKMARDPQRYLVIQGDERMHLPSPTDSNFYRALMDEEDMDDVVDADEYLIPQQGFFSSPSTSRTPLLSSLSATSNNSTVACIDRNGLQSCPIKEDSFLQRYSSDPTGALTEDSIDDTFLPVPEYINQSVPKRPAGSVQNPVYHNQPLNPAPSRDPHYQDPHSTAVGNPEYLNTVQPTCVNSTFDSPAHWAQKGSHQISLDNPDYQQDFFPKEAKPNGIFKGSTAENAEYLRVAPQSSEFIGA
For assay [2], the system named is Epidermal growth factor receptor (Homo sapiens), P00533 [L858R,T790M]. The experiment in a line: Inhibition of EGF-induced EGFR T790M/L858R double mutant phosphorylation in human NCI-H1975 cells pretreated for 2 hrs followed by EGF challenge by Western blotting analysis. Type of assay: cell-based.
Epidermal growth factor receptor (Homo sapiens), P00533 [L858R,T790M], sequence (P00533 whole entry T790M/L858R, looked up): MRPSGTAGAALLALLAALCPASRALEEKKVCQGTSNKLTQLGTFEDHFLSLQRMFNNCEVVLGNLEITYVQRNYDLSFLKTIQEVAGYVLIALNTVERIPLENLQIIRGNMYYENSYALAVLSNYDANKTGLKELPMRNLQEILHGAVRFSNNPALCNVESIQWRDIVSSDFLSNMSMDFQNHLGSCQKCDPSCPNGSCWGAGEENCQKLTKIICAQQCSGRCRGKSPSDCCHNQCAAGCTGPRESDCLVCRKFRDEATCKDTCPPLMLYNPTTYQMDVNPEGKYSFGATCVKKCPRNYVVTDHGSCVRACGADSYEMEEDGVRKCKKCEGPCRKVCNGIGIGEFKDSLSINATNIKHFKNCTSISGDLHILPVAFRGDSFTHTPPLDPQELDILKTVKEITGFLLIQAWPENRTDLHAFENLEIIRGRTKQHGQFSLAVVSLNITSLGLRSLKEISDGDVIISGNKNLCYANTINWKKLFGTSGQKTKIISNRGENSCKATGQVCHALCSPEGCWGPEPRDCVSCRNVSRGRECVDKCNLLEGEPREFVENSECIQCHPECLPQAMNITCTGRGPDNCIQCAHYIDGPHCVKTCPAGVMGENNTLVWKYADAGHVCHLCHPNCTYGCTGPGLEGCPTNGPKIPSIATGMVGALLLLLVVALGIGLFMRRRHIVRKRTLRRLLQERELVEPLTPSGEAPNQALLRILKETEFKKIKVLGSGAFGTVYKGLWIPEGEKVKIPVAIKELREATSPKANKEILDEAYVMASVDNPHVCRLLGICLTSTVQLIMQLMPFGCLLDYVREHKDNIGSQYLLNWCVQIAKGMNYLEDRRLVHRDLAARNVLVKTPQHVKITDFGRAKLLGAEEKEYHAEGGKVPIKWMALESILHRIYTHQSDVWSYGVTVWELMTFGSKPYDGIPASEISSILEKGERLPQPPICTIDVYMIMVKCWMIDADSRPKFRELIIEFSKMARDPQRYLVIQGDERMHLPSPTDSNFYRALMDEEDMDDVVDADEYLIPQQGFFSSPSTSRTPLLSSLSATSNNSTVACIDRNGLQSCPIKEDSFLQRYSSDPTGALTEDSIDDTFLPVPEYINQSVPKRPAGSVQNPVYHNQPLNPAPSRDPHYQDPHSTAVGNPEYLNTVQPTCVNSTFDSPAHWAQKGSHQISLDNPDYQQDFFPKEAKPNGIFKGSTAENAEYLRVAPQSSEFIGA
The target in assay [3] is T1, Epidermal growth factor receptor. The experiment in a line: Inhibition of EGF-induced EGFR autophosphorylation in human A431 cells pretreated for 2 hrs followed by EGF challenge by Western blotting analysis. Type of assay: cell-based. Conditions: A-431.
Assay [4] has the same target. As to the kind of experiment: Inhibition of wild type EGFR domain (unknown origin) expressed in baculovirus expression system using Poly(Glu:Tyr)4:1 substrate after 60 mins by ELISA.
Assay [5] concerns Epidermal growth factor receptor (Homo sapiens), P00533 [L858R,T790M]. As to the kind of experiment: Inhibition of EGFR T790M/L858R double mutant in human NCI-H1975 cells assessed as inhibition of EGF-induced ERK1/2 phosphorylation pretreated for 2 hrs followed by EGF challenge by Western blotting analysis. Type of assay: cell-based.
In assay [6] the target is T1, Epidermal growth factor receptor. As to the kind of experiment: Inhibition of EGF-induced EGFR autophosphorylation in human A431 cells at 0.1 umol/L pretreated for 2 hrs followed by EGF challenge by Western blotting analysis. The format is cell-based. As to conditions: A-431.
Assay [7] relates to Epidermal growth factor receptor (Homo sapiens), P00533 [L858R,T790M]. As to the kind of experiment: Inhibition of EGFR T790M/L858R double mutant in human NCI-H1975 cells assessed as inhibition of EGF-induced AKT phosphorylation pretreated for 2 hrs followed by EGF challenge by Western blotting analysis. The format is cell-based.
Assay [8] deals with T1, Epidermal growth factor receptor. As to the kind of experiment: Inhibition of EGFR in human A431 cells assessed as inhibition of EGF-induced AKT phosphorylation at 0.1 to 1 umol/L pretreated for 2 hrs followed by EGF challenge by Western blotting analysis. The format is cell-based. Conditions: A-431.
A further assay deals with NCI-H1975. As to the kind of experiment: Antiproliferative activity against gefitinib-resistant human NCI-H1975 cells assessed as growth inhibition after 72 hrs by SRB assay. As to conditions: NCI-H1975, 72 h. Type of assay: functional, cell-based.
The test system of the next assay is A-431. The experiment in a line: Antiproliferative activity against human A431 cells assessed as growth inhibition after 72 hrs by SRB assay. Type of assay: functional, cell-based. As to conditions: A-431, 72 h.
Assay [9] has as its target Epidermal growth factor receptor (Homo sapiens, UniProt P00533, L858R/T790M). As to the kind of experiment: Inhibition of EGFR T790M/L858R double mutant (unknown origin) expressed in baculovirus expression system using Poly(Glu:Tyr)4:1 substrate after 60 mins by ELISA.
Assay [10] concerns the target Vascular endothelial growth factor receptor 2 (Homo sapiens, UniProt P35968). The experiment in a line: Inhibition of KDR (unknown origin) expressed in baculovirus expression system using Poly(Glu:Tyr)4:1 after 60 mins by ELISA.
In assay [11] the target is Receptor tyrosine-protein kinase erbB-2 (Homo sapiens, UniProt P04626). The experiment in a line: Inhibition of ErbB2 (unknown origin) expressed in baculovirus expression system using Poly(Glu:Tyr)4:1 after 60 mins by ELISA.
Assay [12] deals with Fibroblast growth factor receptor 1 (Homo sapiens, UniProt P11362). The experiment in a line: Inhibition of FGFR1 (unknown origin) expressed in baculovirus expression system using Poly(Glu:Tyr)4:1 after 60 mins by ELISA.
Assay [13] has as its target Tyrosine-protein kinase ABL1 (Homo sapiens, UniProt P00519). As to the kind of experiment: Inhibition of recombinant ABL (unknown origin) using Poly(Glu:Tyr)4:1 after 60 mins by ELISA.
In assay [14] the target is Insulin-like growth factor 1 receptor (Homo sapiens, UniProt P08069). As to the kind of experiment: Inhibition of IGF1R (unknown origin) expressed in baculovirus expression system using Poly(Glu:Tyr)4:1 after 60 mins by ELISA.
Insulin-like growth factor 1 receptor, sequence (P08069 31-736 limits assumed): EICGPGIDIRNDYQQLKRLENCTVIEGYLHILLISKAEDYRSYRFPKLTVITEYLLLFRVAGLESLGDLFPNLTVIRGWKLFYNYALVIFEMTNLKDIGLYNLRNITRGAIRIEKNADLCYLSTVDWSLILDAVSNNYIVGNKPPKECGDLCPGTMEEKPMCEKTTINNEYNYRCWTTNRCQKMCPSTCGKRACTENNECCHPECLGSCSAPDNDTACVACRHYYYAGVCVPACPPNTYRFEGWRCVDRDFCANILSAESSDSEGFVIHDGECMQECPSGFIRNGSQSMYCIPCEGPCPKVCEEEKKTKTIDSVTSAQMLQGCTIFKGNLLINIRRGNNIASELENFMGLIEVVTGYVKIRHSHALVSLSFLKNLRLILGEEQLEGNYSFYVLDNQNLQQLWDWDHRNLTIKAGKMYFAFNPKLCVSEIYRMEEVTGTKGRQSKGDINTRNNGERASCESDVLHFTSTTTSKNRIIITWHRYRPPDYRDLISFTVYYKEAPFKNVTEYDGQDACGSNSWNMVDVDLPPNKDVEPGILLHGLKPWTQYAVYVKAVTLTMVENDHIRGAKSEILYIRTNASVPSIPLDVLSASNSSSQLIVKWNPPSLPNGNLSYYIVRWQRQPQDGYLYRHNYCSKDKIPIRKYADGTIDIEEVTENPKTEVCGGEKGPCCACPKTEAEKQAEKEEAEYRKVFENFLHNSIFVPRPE
Insulin-like growth factor 1 receptor, sequence (P08069 741-1367 limits assumed): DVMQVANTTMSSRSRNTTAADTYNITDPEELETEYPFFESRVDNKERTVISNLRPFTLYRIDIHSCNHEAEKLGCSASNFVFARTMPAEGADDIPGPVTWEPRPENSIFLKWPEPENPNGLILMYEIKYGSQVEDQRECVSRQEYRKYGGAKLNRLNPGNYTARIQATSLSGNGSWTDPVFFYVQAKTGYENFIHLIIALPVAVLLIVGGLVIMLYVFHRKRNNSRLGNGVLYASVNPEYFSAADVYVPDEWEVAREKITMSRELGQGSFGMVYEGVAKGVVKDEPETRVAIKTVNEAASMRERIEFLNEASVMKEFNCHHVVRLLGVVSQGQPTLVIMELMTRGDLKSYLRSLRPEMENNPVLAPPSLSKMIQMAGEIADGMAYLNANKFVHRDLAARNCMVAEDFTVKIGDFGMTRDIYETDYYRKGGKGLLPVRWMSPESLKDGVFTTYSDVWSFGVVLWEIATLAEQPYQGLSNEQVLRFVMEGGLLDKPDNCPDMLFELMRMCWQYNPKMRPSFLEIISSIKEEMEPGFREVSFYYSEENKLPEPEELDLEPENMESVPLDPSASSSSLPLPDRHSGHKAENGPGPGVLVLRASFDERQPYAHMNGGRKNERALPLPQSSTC
Assay [15] addresses Proto-oncogene tyrosine-protein kinase receptor Ret (Homo sapiens, UniProt P07949). As to the kind of experiment: Inhibition of recombinant RET (unknown origin) using Poly(Glu:Tyr)4:1 after 60 mins by ELISA.
Assay [16] concerns the target Receptor tyrosine-protein kinase erbB-4 (Homo sapiens, UniProt Q15303). The experiment in a line: Inhibition of recombinant ErbB4 (unknown origin) using Poly(Glu:Tyr)4:1 after 60 mins by ELISA.
Assay [17] has as its target Platelet-derived growth factor receptor alpha (Homo sapiens, UniProt P16234). As to the kind of experiment: Inhibition of recombinant PDGFRalpha (unknown origin) using Poly(Glu:Tyr)4:1 after 60 mins by ELISA.
The target of another assay is Ephrin type-A receptor 2 (Homo sapiens, UniProt P29317). The experiment in a line: Inhibition of recombinant EPHA2 (unknown origin) using Poly(Glu:Tyr)4:1 after 60 mins by ELISA.
The subject of assay [18] is Epidermal growth factor receptor (Homo sapiens), P00533 [L858R,T790M]. The experiment in a line: Inhibition of EGF-induced EGFR T790M/L858R double mutant phosphorylation in human NCI-H1975 cells at 0.1 umol/L pretreated for 2 hrs followed by EGF challenge by Western blotting analysis. The format is cell-based.
Assay [19] deals with Vascular endothelial growth factor receptor 1 (Homo sapiens, UniProt P17948). As to the kind of experiment: Inhibition of recombinant Flt-1 (unknown origin) using Poly(Glu:Tyr)4:1 after 60 mins by ELISA.
Assay [20] has as its target Mast/stem cell growth factor receptor Kit (Homo sapiens, UniProt P10721). The experiment in a line: Inhibition of recombinant c-Kit (unknown origin) using Poly(Glu:Tyr)4:1 after 60 mins by ELISA.
For assay [21], the target named is Macrophage-stimulating protein receptor (Homo sapiens, UniProt Q04912). The experiment in a line: Inhibition of recombinant RON (unknown origin) using Poly(Glu:Tyr)4:1 after 60 mins by ELISA.
In assay [22] the target is Platelet-derived growth factor receptor beta (Homo sapiens, UniProt P09619). As to the kind of experiment: Inhibition of recombinant PDGFRbeta (unknown origin) using Poly(Glu:Tyr)4:1 after 60 mins by ELISA.

The source made the active and inactive calls. The rule behind the calls is not given here.

Epidermal growth factor receptor (Homo sapiens, UniProt P00533, L858R/T790M), sequence (P00533 25-1210 T790M/L858R limits assumed): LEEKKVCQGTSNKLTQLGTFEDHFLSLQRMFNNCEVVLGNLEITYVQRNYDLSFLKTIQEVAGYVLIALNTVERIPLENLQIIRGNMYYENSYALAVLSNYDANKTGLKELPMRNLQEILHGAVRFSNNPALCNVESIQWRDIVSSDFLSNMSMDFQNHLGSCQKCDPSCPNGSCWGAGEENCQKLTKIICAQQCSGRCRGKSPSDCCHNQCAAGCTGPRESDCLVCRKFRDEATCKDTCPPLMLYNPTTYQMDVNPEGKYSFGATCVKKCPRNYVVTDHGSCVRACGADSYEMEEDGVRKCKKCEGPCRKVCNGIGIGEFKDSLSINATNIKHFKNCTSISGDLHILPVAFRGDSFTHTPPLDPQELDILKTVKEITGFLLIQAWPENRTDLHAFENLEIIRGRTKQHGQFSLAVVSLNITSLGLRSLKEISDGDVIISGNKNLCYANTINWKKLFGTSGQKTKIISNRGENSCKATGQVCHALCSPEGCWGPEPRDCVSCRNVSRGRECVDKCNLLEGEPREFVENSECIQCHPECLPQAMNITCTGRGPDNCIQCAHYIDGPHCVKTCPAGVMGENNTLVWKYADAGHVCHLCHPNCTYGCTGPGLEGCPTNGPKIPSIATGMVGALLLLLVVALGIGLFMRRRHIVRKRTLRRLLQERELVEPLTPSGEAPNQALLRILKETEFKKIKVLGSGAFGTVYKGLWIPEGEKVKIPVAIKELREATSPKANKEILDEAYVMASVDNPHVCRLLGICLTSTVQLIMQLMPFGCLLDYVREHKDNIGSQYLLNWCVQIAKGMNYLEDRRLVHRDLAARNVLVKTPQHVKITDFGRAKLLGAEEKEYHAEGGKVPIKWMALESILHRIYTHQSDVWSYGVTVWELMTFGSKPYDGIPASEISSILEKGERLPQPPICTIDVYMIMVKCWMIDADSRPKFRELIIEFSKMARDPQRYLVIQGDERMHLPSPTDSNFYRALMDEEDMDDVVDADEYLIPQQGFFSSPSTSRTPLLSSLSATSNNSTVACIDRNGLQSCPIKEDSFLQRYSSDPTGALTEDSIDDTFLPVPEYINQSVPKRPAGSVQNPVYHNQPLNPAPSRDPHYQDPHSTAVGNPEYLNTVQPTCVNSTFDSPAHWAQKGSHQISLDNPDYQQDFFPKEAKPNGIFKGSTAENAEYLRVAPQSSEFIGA

As to `O=C(/C=C/CN1CCC(F)(F)CC1)Nc1cc2c(Nc3ccc(F)c(Cl)c3)ncnc2s1`, the inhibition entry in assay [1], in assay [6] and in [8] was “Active” throughout. The inhibition result in assay [2], in assay [3], in assay [5] and in assay [7] was “Dose-dependent effect” throughout. Moreover, the IC50 in assay [4] worked out at 7 nM; in the assay on NCI-H1975, 5160 nM; with A-431, 1200 nM; in assay [9] it was 4 nM.
For `O=C(/C=C/CN1CCOCC1)Nc1cc2c(Nc3ccc(F)c(Cl)c3)ncnc2s1`, the inhibition result in assay [1], in assay [6] and in assay [8] was “Active” in each case. Further, the inhibition result in [2], in [3], in assay [5] and in assay [7] was “Dose-dependent effect” each time. The IC50 in assay [4] amounted to 3 nM; with NCI-H1975 it was 11700 nM; in the assay on A-431, 2170 nM; in assay [9], 3 nM.
In the case of `C=CC(=O)Nc1cc2c(Nc3ccc(F)c(Cl)c3)ncnc2s1`, the IC50 is over 10000 nM in [10]; 40 nM in assay [11]; over 10000 nM in [12]; over 10000 nM in [13]; over 10000 nM in assay [14]; 1630 nM in assay [15]. The IC50 is 4 nM in [16]; over 10000 nM in assay [17]; 16 nM in assay [4]; over 10000 nM at Ephrin type-A receptor 2; over 10000 nM in assay [19]; 3000 nM in the assay with NCI-H1975. The IC50 was over 10000 nM in [20]; 730 nM in the assay on A-431; 24 nM in assay [9]; over 10000 nM in [21]; over 10000 nM in assay [22]. Also, the inhibition entry in [1], in assay [6], in assay [18] and in assay [8] was “Active” in each case. In addition, the inhibition entry in assay [2], in assay [3], in [5] and in assay [7] was “Dose-dependent effect” in each case.
With `O=C(/C=C/CN1CCCCC1)Nc1cc2c(Nc3ccc(F)c(Cl)c3)ncnc2s1`, the inhibition entry in assay [1], in assay [6] and in [8] was “Active” throughout. Further, the inhibition entry in assay [2], in assay [3], in assay [5] and in [7] was “Dose-dependent effect” throughout. Also, the IC50 in assay [4] was 9 nM; in the assay with NCI-H1975 it was 6440 nM; in the assay with A-431, 130 nM; in assay [9], 2 nM.
In the case of `O=C(/C=C/CN1CC2CCC1C(=O)C2)Nc1cc2c(Nc3ccc(F)c(Cl)c3)ncnc2s1` (centres undefined), the IC50 in [10] was over 10000 nM; in assay [11], 30 nM; in [12], over 10000 nM; in assay [13], over 10000 nM; in [14], over 10000 nM; in assay [15], over 10000 nM. The IC50 in assay [16] was 37 nM; in assay [17], over 10000 nM; in assay [4], 0.9 nM; at Ephrin type-A receptor 2, over 10000 nM; in assay [19], over 10000 nM; with NCI-H1975, 12000 nM. The IC50 in [20] is over 10000 nM; in the assay on A-431, 1540 nM; in assay [9], 4 nM; in [21], over 10000 nM; in assay [22], over 10000 nM. Besides, the inhibition result in [1], in assay [6] and in [8] was “Active” each time. Further, the inhibition entry in assay [2], in assay [3], in [5] and in assay [7] was “Dose-dependent effect” in each case.
For the molecule `CN(C)CCCN(C)CC(=O)Nc1cc2c(Nc3ccc(F)c(Cl)c3)ncnc2s1`, the IC50 worked out at 5220 nM in assay [4], 19100 nM in the assay with NCI-H1975, 2380 nM in the assay with A-431 and 1700 nM in [9].
On the same counts, the results for `CCCCC(=O)Nc1cc2c(Nc3ccc(F)c(Cl)c3)ncnc2s1` are over 10000 nM, over 100000 nM, 14200 nM and over 10000 nM.
For the molecule `CS(=O)(=O)CCNC/C=C/C(=O)Nc1cc2c(Nc3ccc(F)c(Cl)c3)ncnc2s1`, the half-inhibitory concentration (IC50) in [4] was determined as 3 nM; in the assay with NCI-H1975, 44900 nM; in the assay on A-431, 19200 nM; in assay [9], 68 nM.
